PMC10107299, “Neutralizing the Impact of the Virulence Factor LecA from Pseudomonas aeruginosa on Human Cells with New Glycomimetic Inhibitors” (Angewandte Chemie (International Ed. in English), 2023)
Several values for one entry are separate records, joined by “and”; a condition that tells them apart may be missing. Equal values may be shown once.

Assays:
LecA [1] = target: T1, LecA (Pseudomonas aeruginosa, UniProt Q05097); experiment: Competitive binding assay based on fluorescence polarization
T1 construct: made in house
Protocol: All synthesized galactosides were then evaluated for LecA inhibition using a competitive binding assay based on fluorescence polarization (Figure S1).[24]
Expression and purification of LecA as well as competitive binding by fluorescence polarization was performed as described by Joachim et al..[9] The assay was performed in TBS/Ca2+ buffer (20 mM Tris, 137 mM NaCl, 2.6 mM KCl at pH 7.4 supplemented with 1 mM CaCl2) in presence of 25% DMSO. Averages and standard deviations were calculated from at least three independent experiments. […]
RR OR In h i b i to r [µ M ]
R R In h i b i to r [µ M ] […]
R In h i b i to r [µ M ] 30 L2
30 F2 40 K2 In h i b i to r [µ M ] […]
In h i b i to r [µ M ] In h i b i to r [µ M ]
Figure S1: Evaluation of amide divalent LecA ligands in a competitive binding assay based on fluorescence […]
representative experiment is shown or each series. Averages and standard deviations from at least three independent titrations of triplicates each.
[…] Fluorescence polarization [mP] -1 0 1 2 3 0 1001010 Me-α-Gal pNO2-Ph-β-Gal 1000 Inhibitor [µM] Fluorescence polarization [mP])

LecA [2] = target: T1, LecA; experiment: Direct binding to immobilized LecA by surface plasmon resonance (SPR); conditions: for kon: SPR single-cycle kinetics, 25 °C, N=3 (I1 N=1); for Relative potency r.p. (SPR): compared to respective monovalent compound in each series
Protocol: K d values were oscillating with the number of methylene units present in the linker, presumably linked to the zig‐zag geometry of the hydrocarbon chain.
Expression and purification of LecA as well as competitive binding by fluorescence polarization was performed as described by Joachim et al..[9] […]
Surface plasmon resonance experiments were performed on a BIACORE X100 instrument (GE Healthcare) at 25 °C as described by Zahorska et. al..[8] Averages and standard deviations were calculated from three independent experiments. […]
Figure S3: SPR of divalent LecA ligands from benzene series. Sensorgrams obtained from SPR single-cycle kinetics experiments. Five different concentrations of each compound (0, 10, 50, 100, 200 nM) were sequentially injected to obtain the experimental sensorgrams (blue lines), which were then fitted by a 1:1 model (orange) on BIACORE evaluation software. […]
Figure S4: SPR of divalent LecA ligands from pyridine and sulfonated series. Sensorgrams obtained from SPR single-cycle kinetics experiments. Five different concentrations of each compound (0, 10, 50, 100, 200 nM) were sequentially injected to obtain the experimental sensorgrams (blue lines), which were then fitted by a 1:1 model (orange) on BIACORE evaluation software.
(also on this page, place not known: Response (RU)0 Response (RU)0 Response (RU) Response (RU) Response (RU) Response (RU) 030060090012001500) […]

LecA [3] = target: T1, LecA; experiment: Isothermal titration microcalorimetry (ITC) with LecA; type: binding; conditions: for -TΔS (supplement) / ΔS: ITC average ± s.d.; for Relative potency r.p. (ITC): compared to respective monovalent compound in each series; for ΔG, individual titration / ΔH, individual titration: LecA 35-182 µM, ligand 100 µM-1.5 mM as headed
Text: Due to the high solubility of the propanamides in the pyridine series and the sulfonated ligand L2, we determined binding thermodynamics with LecA using isothermal titration microcalorimetry (ITC, Figure 3, Figures S5–S9). […] In both cases, the enthalpy of binding increased approximately twofold (I2: ΔH=−23.9±1.2 kcal mol^−1, L2: ΔH=−19.5±1.3 kcal mol^−1) compared to their monovalent analogues (G2: ΔH=−11.0±0.2 kcal mol^−1, K2: ΔH=−10.3±0.1 kcal mol^−1), while the binding entropy was increased approximately threefold (G2: −TΔS=3.8±0.2 kcal mol^−1 vs. I2: −TΔS=13.7±1.3 kcal mol^−1, K2: −TΔS=3.2±0.2 kcal mol^−1 vs. L2: −TΔS=9.4±1.3 kcal mol^−1).
Figure 3 Direct binding of selected ligands to LecA by ITC (N=3). Titration of LecA (50 μM) with divalent sulfonated ligand L2 (250 μM) is depicted. Relative potencies (r.p.) were calculated compared to respective monovalent compound in each series and […]. TEXT PRINTED IN THE PICTURE: G2: ΔG [kcal/mol]: -7.2 ± 0.1; ΔH [kcal/mol]: -11.0 ± 0.2; -TΔS [kcal/mol]: 3.8 ± 0.2; N: 1.07 ± 0.06; Kd [nM]: 5 270 ± 30; r.p.: 1 | I2: ΔG [kcal/mol]: -10.2 ± 0.2; ΔH [kcal/mol]: -23.9 ± 1.2; -TΔS [kcal/mol]: 13.7 ± 1.3; N: 0.43 ± 0.01; Kd [nM]: 35.1 ± 12.5; r.p.: 150 | J2: ΔG [kcal/mol]: -9.7 ± 0.2; ΔH [kcal/mol]: -13.5 ± 0.4; -TΔS [kcal/mol]: 3.8 ± 0.5; N: 0.61 ± 0.06; Kd [nM]: 79.5 ± 32.8; r.p.: 66 | K2: ΔG [kcal/mol]: -7.1 ± 0.1; ΔH [kcal/mol]: -10.3 ± 0.1; -TΔS [kcal/mol]: 3.2 ± 0.2; N: 1.08 ± 0.13; Kd [nM]: 6 230 ± 440; r.p.: 1 | L2: ΔG [kcal/mol]: -10.1 ± 0.1; ΔH [kcal/mol]: -19.5 ± 1.3; -TΔS [kcal/mol]: 9.4 ± 1.3; N: 0.52 ± 0.06; Kd [nM]: 39.9 ± 3.6; r.p.: 156 […]
Expression and purification of LecA as well as competitive binding by fluorescence polarization was performed as described by Joachim et al..[9] The assay was performed in TBS/Ca2+ buffer (20 mM Tris, 137 mM NaCl, 2.6 mM KCl at pH 7.4 supplemented with 1 mM […]
CaCl2) in presence of 25% DMSO. […]
Isothermal titration calorimetry was performed on an iTC200 (Malvern Panalytical) and the data were analyzed using Microcal Origin software (Malvern Panalytical). LecA (50 - 180 […]
K2 and L2 and TBS/Ca2+ buffer supplemented with 5% DMSO for I2 and J2. Steep titration slopes achieved with the divalent ligands were the result of high amount of protein present and the high binding affinity of the ligand (high ‘value of c’).[10] However, LecA protein […]
low heat released upon binding. […]

[4] = ITC average, 25 °C, TBS/Ca2+ buffer (5% DMSO for I2 and J2), N=3
[5] = Kd (ITC), ITC average, 25 °C, TBS/Ca2+ buffer
[6] = Kd, individual titration, single ITC titrations, three per ligand
[7] = single ITC titrations, three per ligand

T1 sequence (Q05097 whole entry): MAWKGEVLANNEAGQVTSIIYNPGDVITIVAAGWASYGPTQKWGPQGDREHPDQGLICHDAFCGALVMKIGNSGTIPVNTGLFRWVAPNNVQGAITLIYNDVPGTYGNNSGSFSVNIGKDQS

## O=C(/C=C/c1ccc(O[C@@H]2O[C@H](CO)[C@H](O)[C@H](O)[C@H]2O)cc1)Nc1ccc(OCCOc2ccc(NC(=O)/C=C/c3ccc(O[C@@H]4O[C@H](CO)[C@H](O)[C@H](O)[C@H]4O)cc3)cc2)cc1 [Compound D1]
LecA [1]
  IC50: 5.6 ± 3.1 µM
LecA [2]
  Kd: 0.0407 ± 0.003 µM
  koff: 0.00249 ± 0.00028 s⁻¹
  kon: 61.1 ± 2.5 x10^3/Ms
  Relative potency r.p. (SPR): 128

## O=C(CCc1ccc(O[C@@H]2O[C@H](CO)[C@H](O)[C@H](O)[C@H]2O)cc1)Nc1ccc(OCCOc2ccc(NC(=O)CCc3ccc(O[C@@H]4O[C@H](CO)[C@H](O)[C@H](O)[C@H]4O)cc3)cc2)cc1 [Compound D2]
LecA [1]
  IC50: 4.5 ± 1.8 µM
LecA [2]
  Kd: 0.0231 ± 0.0003 µM
  koff: 0.00284 ± 6e-05 s⁻¹
  kon: 123 ± 4.1 x10^3/Ms
  Relative potency r.p. (SPR): 233

## COc1ccc(NC(=O)CCc2ccc(O[C@@H]3O[C@H](CO)[C@H](O)[C@H](O)[C@H]3O)cc2)cn1 [Compound G2]
LecA [1]
  IC50: 14.3 ± 7.2 µM
LecA [2]
  Kd: 2.97 ± 0.08 µM
  Relative potency r.p. (SPR): 1
LecA [3]; 25 °C
  -TΔS (supplement): 3.8 ± 0.2 kcal/mol
  ΔS: -12.8 ± 0.6 cal/mol/K
LecA [3]; ITC average, 25 °C, N=3
  N (stoichiometry): 1.07 ± 0.06
LecA [3]; [4]
  -TΔS: 3.8 ± 0.2 kcal/mol
  ΔG: -7.2 ± 0.01 kcal/mol and -7.2 ± 0.1 kcal/mol
  ΔH: -11.0 ± 0.2 kcal/mol
LecA [3]; [5]
  Kd: 5.27 ± 0.03 µM
LecA [3]; [6]
  Kd: 5.32 µM and 5.26 µM and 5.24 µM
LecA [3]
  Relative potency r.p. (ITC): 1
LecA [3]; [7]
  N, individual titration: 1.10 and 1.13 and 0.99
  ΔS, individual titration: -12.5 cal/mol/K and -13.7 cal/mol/K and -12.3 cal/mol/K
  ΔG, individual titration: -7.2 kcal/mol
  ΔH, individual titration: -10.9 kcal/mol (2×) and -11.3 kcal/mol

## O=C(/C=C/c1ccc(O[C@@H]2O[C@H](CO)[C@H](O)[C@H](O)[C@H]2O)cc1)Nc1ccc(OCCOc2ccc(NC(=O)/C=C/c3ccc(O[C@@H]4O[C@H](CO)[C@H](O)[C@H](O)[C@H]4O)cc3)cn2)nc1 [Compound H1]
LecA [1]
  IC50: 8 ± 4.3 µM
LecA [2]
  Kd: 0.0137 ± 0.0016 µM
  koff: 0.00165 ± 0.00012 s⁻¹
  kon: 121 ± 6.8 x10^3/Ms
  Relative potency r.p. (SPR): 217

## O=C(CCc1ccc(O[C@@H]2O[C@H](CO)[C@H](O)[C@H](O)[C@H]2O)cc1)Nc1ccc(OCCOc2ccc(NC(=O)CCc3ccc(O[C@@H]4O[C@H](CO)[C@H](O)[C@H](O)[C@H]4O)cc3)cn2)nc1 [Compound H2]
LecA [1]
  IC50: 4.8 ± 2.2 µM
LecA [2]
  Kd: 0.0099 ± 0.0001 µM
  koff: 0.00141 ± 5e-05 s⁻¹
  kon: 142 ± 3.5 x10^3/Ms
  Relative potency r.p. (SPR): 300

## Cc1ccc(NC(=O)CCc2ccc(O[C@@H]3O[C@H](CO)[C@H](O)[C@H](O)[C@H]3O)cc2)cc1S(=O)(=O)O [Compound K2]
LecA [1]
  IC50: 14.4 ± 3.6 µM
LecA [2]
  Kd: 3.79 ± 0.1 µM
  Relative potency r.p. (SPR): 1
LecA [3]; 25 °C
  -TΔS (supplement): 3.2 ± 0.2 kcal/mol
  ΔS: -10.7 ± 0.6 cal/mol/K
LecA [3]; ITC average, 25 °C, N=3
  N (stoichiometry): 1.08 ± 0.13
LecA [3]; [4]
  -TΔS: 3.2 ± 0.2 kcal/mol
  ΔG: -7.1 ± 0.1 kcal/mol
  ΔH: -10.3 ± 0.1 kcal/mol
LecA [3]; [5]
  Kd: 6.23 ± 0.44 µM
LecA [3]; [6]
  Kd: 6.33 µM and 5.65 µM and 6.71 µM
LecA [3]
  Relative potency r.p. (ITC): 1
LecA [3]; [7]
  N, individual titration: 1.25 and 1.05 and 0.94
  ΔS, individual titration: -10.0 cal/mol/K and -11.3 cal/mol/K and -10.7 cal/mol/K
  ΔG, individual titration: -7.1 kcal/mol (2×) and -7.2 kcal/mol
  ΔH, individual titration: -10.3 kcal/mol and -10.1 kcal/mol and -10.4 kcal/mol

## O=C(CCc1ccc(O[C@@H]2O[C@H](CO)[C@H](O)[C@H](O)[C@H]2O)cc1)Nc1ccc(CCc2ccc(NC(=O)CCc3ccc(O[C@@H]4O[C@H](CO)[C@H](O)[C@H](O)[C@H]4O)cc3)cc2S(=O)(=O)O)c(S(=O)(=O)O)c1 [Compound L2]
LecA [1]
  IC50: 4.6 ± 2.2 µM
LecA [2]
  Kd: 0.0328 ± 0.0015 µM
  koff: 0.00707 ± 0.0011 s⁻¹
  kon: 215 ± 29 x10^3/Ms
  Relative potency r.p. (SPR): 115
LecA [3]; 25 °C
  -TΔS (supplement): 9.4 ± 1.3 kcal/mol
  ΔS: -31.6 ± 4.4 cal/mol/K
LecA [3]; ITC average, 25 °C, N=3
  N (stoichiometry): 0.52 ± 0.06
LecA [3]; [4]
  -TΔS: 9.4 ± 1.3 kcal/mol
  ΔG: -10.1 ± 0.1 kcal/mol
  ΔH: -19.5 ± 1.3 kcal/mol
LecA [3]; Kd (ITC), ITC average, 25 °C, TBS/Ca2+ buffer (5% DMSO for I2 and J2), N=3
  Kd: 0.0399 ± 0.0036 µM
LecA [3]; [6]
  Kd: 0.0448 µM and 0.038 µM and 0.0368 µM
LecA [3]
  Relative potency r.p. (ITC): 156
LecA [3]; [7]
  N, individual titration: 0.56 and 0.55 and 0.44
  ΔS, individual titration: -27.5 cal/mol/K and -37.6 cal/mol/K and -29.6 cal/mol/K
  ΔG, individual titration: -10.0 kcal/mol and -10.1 kcal/mol (2×)
  ΔH, individual titration: -18.9 kcal/mol and -18.3 kcal/mol and -21.4 kcal/mol
